According to patent US20170121315A1, “HETEROBICYCLICALLY SUBSTITUTED 4-OXOBUTANE ACID DERIVATIVES AND USE THEREOF” (priority 2014, published 2017):

Key:
[1] = target: T1, MMP-7 (Homo sapiens, UniProt P09237); assay: In vitro MMP-7 inhibition test; assay type: biochemical; settings: human MMP-7
T1 construct: purchased R&D Systems 907-MP
T1 sequence (P09237 95-267): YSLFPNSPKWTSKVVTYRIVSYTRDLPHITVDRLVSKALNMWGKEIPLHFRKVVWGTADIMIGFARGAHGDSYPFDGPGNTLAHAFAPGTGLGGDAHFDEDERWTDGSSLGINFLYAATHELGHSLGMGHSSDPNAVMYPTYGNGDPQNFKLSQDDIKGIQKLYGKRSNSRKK
From the text: (§1) The MMP-mediated amidolytic cleavage of a suitable peptide substrate leads to an increase in fluorescent light here too. The signal intensity of the fluorescent light is directly proportional to the enzyme activity. The active concentration of a test compound at which half the enzyme is inhibited (50% signal intensity of the fluorescent light) is reported as the IC50 value.
(§2) Recombinant MMP-7 (from R&D Systems, 907-MP) is chemically activated in accordance with the manufacturer's instructions using APMA. 1 μl of the test compound to be analysed (as a solution in DMSO, suitable concentrations e.g. 1 nM to 30 μM) is pipetted into 24 μl of activated enzyme (final concentration e.g. 0.5 nM) in reaction buffer (50 mM Tris/HCl pH 7.5, 10 mM CaCl2, 150 mM NaCl, 0.05% Brij®-35) in a white 384-hole microtiter plate (MTP). The enzymatic reaction is started by adding the intramolecularly quenched Mca-Pro-Leu-Gly-Leu-Dpa(Dnp)-Ala-Arg-NH2 substrate (final concentration e.g. 10 μM; R&D Systems, ES-001), so as to result in a total test volume of 50 μl. The course of the MMP-7 reaction is measured by measuring the fluorescence intensity (excitation 320 nm, emission 410 nm) over a suitable period of time (e.g. over 120 min at a temperature of 32° C.).

[2] = target: T2, MMP-8 (Homo sapiens, UniProt P22894); assay: In vitro MMP-8 inhibition test; assay type: biochemical; settings: human MMP-8
T2 construct: purchased R&D Systems 908-MP
From the text: as §1
as §2, with “MMP-8 (R&D” for “MMP-7 (from R&D”, “908-MP)” for “907-MP)”, “MMP-8” for “MMP-7”

[3] = target: T3, MMP-9 (Homo sapiens, UniProt P14780); assay: In vitro MMP-9 inhibition test; assay type: biochemical; settings: human MMP-9
T3 construct: purchased R&D Systems 911-MP
From the text: as §1
as §2, with “MMP-9 (R&D” for “MMP-7 (from R&D”, “911-MP)” for “907-MP)”, “0.1” for “0.5”, “MMP-9” for “MMP-7”

[4] = system: rat hepatocytes; assay: Hepatocyte assay for determination of metabolic stability; assay type: in vitro ADME; settings: after incubation with rat hepatocytes

T2 sequence (P22894 101-467): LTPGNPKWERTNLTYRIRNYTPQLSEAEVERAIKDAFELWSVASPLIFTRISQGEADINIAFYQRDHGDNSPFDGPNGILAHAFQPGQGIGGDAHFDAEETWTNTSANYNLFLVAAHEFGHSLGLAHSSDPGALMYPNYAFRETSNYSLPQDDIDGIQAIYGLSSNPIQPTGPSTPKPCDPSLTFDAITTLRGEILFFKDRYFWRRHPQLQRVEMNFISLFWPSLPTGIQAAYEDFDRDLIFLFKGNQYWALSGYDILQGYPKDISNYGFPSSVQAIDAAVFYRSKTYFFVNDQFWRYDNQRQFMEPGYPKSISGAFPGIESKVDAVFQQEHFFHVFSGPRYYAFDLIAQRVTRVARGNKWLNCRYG
T3 sequence (P14780 107-707 limits assumed): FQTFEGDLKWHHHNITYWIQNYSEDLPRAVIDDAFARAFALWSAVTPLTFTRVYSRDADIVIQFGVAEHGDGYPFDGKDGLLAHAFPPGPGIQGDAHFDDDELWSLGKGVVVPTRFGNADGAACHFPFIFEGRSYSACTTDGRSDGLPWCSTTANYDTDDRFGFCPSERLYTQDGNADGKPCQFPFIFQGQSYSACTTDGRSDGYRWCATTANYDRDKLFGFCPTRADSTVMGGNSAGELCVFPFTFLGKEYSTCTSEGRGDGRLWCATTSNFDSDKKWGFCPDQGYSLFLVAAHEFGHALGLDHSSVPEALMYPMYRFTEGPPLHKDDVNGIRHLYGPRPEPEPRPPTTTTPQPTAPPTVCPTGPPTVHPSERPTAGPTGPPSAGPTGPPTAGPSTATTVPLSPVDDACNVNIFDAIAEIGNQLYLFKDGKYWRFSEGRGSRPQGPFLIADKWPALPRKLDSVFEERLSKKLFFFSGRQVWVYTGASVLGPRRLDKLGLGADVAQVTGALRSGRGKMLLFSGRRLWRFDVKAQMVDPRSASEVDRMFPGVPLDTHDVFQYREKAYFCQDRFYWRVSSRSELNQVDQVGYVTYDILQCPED

IC50 [1]	IC50 [2]	IC50 [3]	CLblood (calculated blood clearance, well-stirred) [4]	Fmax (maximum possible bioavailability after oral administration, well-stirred) [4]	SMILES
> 40000 nM	> 40000 nM	2200 nM	23.2 mL/min/kg	66.9%	O=C(CC(CCn1nnc2ccccc2c1=O)C(=O)O)c1cc2ccc(OCCc3ccccc3)cc2o1 (racemic) [Example 73, (+/−)-4-Oxo-2-[2-(4-oxo-1,2,3-benzotriazin-3(4H)-yl)ethyl]-4-[6-(2-phenylethoxy)-1-benzofur-2-yl]butanoic acid]
> 40000 nM	1200 nM	190 nM	12.2 mL/min/kg	82.7%	O=C(CC(CCn1nnc2ccccc2c1=O)C(=O)O)c1noc2cc(OCc3ccc(F)cc3)ccc12 (racemic) [Example 136, (+/−)-4-{6-[(4-Fluorobenzyl)oxy]-1,2-benzoxazol-3-yl}-4-oxo-2-[2-(4-oxo-1,2,3-benzotriazin-3(4H)-yl)ethyl]butanoic acid]
> 40000 nM	570 nM	43 nM	24.8 mL/min/kg	64.5%	CCCCCOc1ccc2c(C(=O)CC(CCn3nnc4ccccc4c3=O)C(=O)O)noc2c1 (racemic) [Example 140, (+/−)-4-Oxo-2-[2-(4-oxo-1,2,3-benzotriazin-3(4H)-yl)ethyl]-4-[6-(pentyloxy)-1,2-benzoxazol-3-yl]butanoic acid]
> 40000 nM	2500 nM	760 nM	29 mL/min/kg	58.6%	O=C(CC(CCn1nnc2ccccc2c1=O)C(=O)O)c1noc2cc(OCCc3ccccc3)ccc12 (racemic) [Example 144, (+/−)-4-Oxo-2-[2-(4-oxo-1,2,3-benzotriazin-3(4H)-yl)ethyl]-4-[6-(2-phenylethoxy)-1,2-benzoxazol-3-yl]butanoic acid]
> 40000 nM	2800 nM	170 nM	25.5 mL/min/kg	63.7%	O=C(CC(CCn1nnc2ccccc2c1=O)C(=O)O)c1noc2cc(OCc3ccccc3)ccc12 (racemic) [Example 145, (+/−)-4-[6-(Benzyloxy)-1,2-benzoxazol-3-yl]-4-oxo-2-[2-(4-oxo-1,2,3-benzotriazin-3(4H)-yl)ethyl]butanoic acid]
18000 nM	970 nM	250 nM	20.3 mL/min/kg	70.9%	O=C(CC(CCn1nnc2ccc(C(F)(F)F)cc2c1=O)C(=O)O)c1noc2cc(OCc3ccccc3)ccc12 (racemic) [Example 154, (+/−)-4-[6-(Benzyloxy)-1,2-benzoxazol-3-yl]-4-oxo-2-{2-[4-oxo-6-(trifluoromethyl)-1,2,3-benzotriazin-3(4H)-yl]ethyl}butanoic acid]
24000 nM	82 nM	2800 nM	20.2 mL/min/kg	71.1%	O=C(CC(CCn1nnc2ccc(C(F)(F)F)cc2c1=O)C(=O)O)c1noc2cc(OCC3CCOCC3)ccc12 (racemic) [Example 155, (+/−)-4-Oxo-2-{2-[4-oxo-6-(trifluoromethyl)-1,2,3-benzotriazin-3(4H)-yl]ethyl}-4-[6-(tetrahydro-2H-pyran-4-ylmethoxy)-1,2-benzoxazol-3-yl]butanoic acid]
3200 nM	240 nM	590 nM	33.2 mL/min/kg	52.5%	O=C(CC(CCn1nnc2ccccc2c1=O)C(=O)O)c1cc2ccc(OCC3CC3)cc2s1 (single isomer, unassigned; (+)) [Example 112, (+)-4-[6-(Cyclopropylmethoxy)-1-benzothiophen-2-yl]-4-oxo-2-[2-(4-oxo-1,2,3-benzotriazin-3(4H)-yl)ethyl]butanoic acid]
